Data from patent US11506670B2, “Method of genome-wide direct identification of electrophile-sensing targets” (Cornell University, priority 2018, dated 2022).
Values joined by “and” are separate entries in the source; they are usually repeats but may differ in a detail not shown here. Equal values may be shown once.

Key:
Ube2V1 = target: T1, Ube2V1 (Homo sapiens, UniProt Q13404); assay: T-REX targeted delivery efficiency, in-gel fluorescence (Cy5 Click); assay type: cell-based; conditions: HEK293T, Halo-Ube2V1
T1 construct: the gene of interest (GOI) was PCR-amplified out from the original plasmid; expressed in transfected cells; host or cells: HEK 293T
Procedure: (§1) HEK 293T cells were maintained in 1×MEM+ Glutamax™ media supplemented with 10% FBS, 1×NEAA, 1× sodium pyruvate and 1× Pen-Strep. Cells were grown in a humidified, 5% CO2 incubator at 37° C. For in-gel fluorescence analysis and western blot, ˜0.7-0.8×10^6 HEK 293T cells were seeded in 8 cm^2 tissue culture dishes. 24 h later, cells were transfected using TransIT-2020 transfection reagent per the manufacturer's recommendation. Subsequent steps were performed under dim light. 24-36 h post transfection, monolayer of cells were treated with 25 μM Ht-PreHNE in serum-free media and incubated for 2.5 h. Cells were gently rinsed with serum-free media three times every 30 min over the next 1.5 h. Meanwhile, UV lamps were turned on 10 min prior to UV irradiation time. For samples designated for light exposure, lids were removed from the dishes and cells were placed under 365 nm UV light for 5-8 min. The cells were harvested, washed two times with ice-cold PBS and frozen in liquid nitrogen.
(§2) All steps were performed in dark or under dim light. Cells from 8 cm^2 plates were lysed in 30 μL buffer containing 50 mM HEPES (pH 7.6), 150 mM NaCl, 1% Nonidet P-40, 1× Roche cOmplete, mini, EDTA-free protease inhibitor cocktail, and 0.3 mM TCEP by rapid freeze-thaw (×3). […] Protein concentration of the clarified lysate was determined using Bradford assay. […]

Ube2N = target: T2, Ube2N (Homo sapiens, UniProt P61088); assay: as above; assay type: cell-based; conditions: HEK293T, Halo-Ube2N
T2 construct: expressed in transfected cells; host or cells: HEK 293T
T2 sequence (P61088 1-152): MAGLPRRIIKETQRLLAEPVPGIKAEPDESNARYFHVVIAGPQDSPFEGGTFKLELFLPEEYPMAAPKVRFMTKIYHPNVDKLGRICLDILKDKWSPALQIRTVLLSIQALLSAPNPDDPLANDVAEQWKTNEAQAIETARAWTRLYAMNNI
Procedure: as §1, §2

NF-κB-signaling (Ube2V2) = assay: NF-κB dual luciferase reporter assay after T-REX on Halo-Ube2V2; assay type: cell-based, human; conditions: T-REX HNEylation of Ube2V2 in place of Ube2V1
Procedure: 1.5-1.6×10^5 HEK 293T cells were seeded in each well of a 48-well plate. 24 h later, the cells were transfected with 120 ng of the designated HaloTag fusion gene plasmid and 120 ng of NF-kB-Firefly luciferase: pCMV-Renilla luciferase (40:1) mix, using TransIT-2020 transfection agent. 24 h post-transfection, cells were treated with 25 μM Ht-PreHNE or vehicle (corresponding volume of DMSO alone) for 2.5 h, rinsed three times and irradiated with 365 nm UV light for 10 min. The cells were incubated for a further 8 h. For dual luciferase assay, cells in each well were gently washed with 1×DPBS and lysed in 65 μL of 1× passive lysis buffer containing in final concentrations 25 mM Tris (pH 7.8), 2 mM 1,2-CDTA, 2 mM DTT, 1 mg/mL BSA, 1% Triton X-100, and 10% Glycerol. 20 μL of the lysate was transferred to a white opaque 96-well plate (Corning). Firefly luciferase was read after adding 50 μL Firefly substrate (75 mM HEPES pH 8.0, 4 mM MgSO4, 20 mM DTT, 0.1 mM EDTA, 0.53 mM ATP, 0.27 mM Coenzyme-A, 0.47 mM D-Luciferin Firefly). Subsequently, 50 μL of Stop and Glow substrate (7.5 mM sodium acetate pH 5.0, 400 mM sodium sulfate, 10 mM CDTA, 15 mM sodium pyrophosphate, 0.025 mM APMBT, 5.5 μM Coelenterazine) was added and Renilla luciferase activity was measured.

Ube2V2 = Ube2V2 (Homo sapiens, UniProt Q15819); assay: T-REX targeted delivery efficiency, in-gel fluorescence (Cy5 Click); assay type: cell-based; parameters: the gene of interest (GOI) was PCR-amplified out from the original plasmid; expressed in transfected cells; host or cells: HEK 293T; conditions: HEK293T, Halo-Ube2V2
Procedure: as §1, §2

[1] = test system: DNA synthesis in HEK293T cells; assay: EdU/BrdU dual-pulse DNA-replication efficiency assay; assay type: cell-based, human; conditions: wt-Ube2V2 cells, post T-REX
Procedure: 4.8×10^5 cells were plated in glass-bottomed dishes (In Vitro Scientific) and allowed to grow for 24 h. Cells were transfected with the indicated plasmid and allowed to grow for another 24 h. Cells were then treated with 3 μM Ht-PreHNE no alkyne for 2.5 h followed by two rinses with serum-free medium. After this time, 20 μM EdU (final concentration) was added into cell culture media for 30 min before the 3rd rinse. The cells were rinsed another two times before light shining. 2.5 h post light irradiation, cells were treated with 50 μM BrdU for 30 min at 37° C. Then the cells were fixed with −20° C. pre-chilled MeOH for 20 min and then carried on to immunofluorescence assay as described elsewhere.
Whether DNA-synthesis stall (that occurs in response to many DNA damage events) accompanies C69-specific Ube2V2-HNEylation was investigated. A dual-pulse assay was used, which involves sequential, timed pulsing with two orthogonal DNA-labeling agents (EdU, followed by BrdU) that can be detected by fluorescence imaging (FIG. 13D). This assay is very accurate, because DNA-synthesis is measured over a defined time range, allowing a good estimate of synthesis-rate to be determined.

Chain of Ube2V2 (Q15819 whole entry): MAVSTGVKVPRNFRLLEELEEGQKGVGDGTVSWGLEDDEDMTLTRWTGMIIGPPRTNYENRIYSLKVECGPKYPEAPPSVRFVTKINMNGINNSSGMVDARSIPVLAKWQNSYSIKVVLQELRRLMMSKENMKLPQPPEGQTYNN
T1 sequence (Q13404 1-170 isoform Q13404-2): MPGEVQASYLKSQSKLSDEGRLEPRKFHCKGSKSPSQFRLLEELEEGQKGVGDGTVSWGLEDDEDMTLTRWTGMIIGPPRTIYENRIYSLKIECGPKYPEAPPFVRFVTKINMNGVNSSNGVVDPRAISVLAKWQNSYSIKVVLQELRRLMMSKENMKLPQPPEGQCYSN

CCCCCC(O)/C=C/C=O (centres unmarked) [HNE, 4-hydroxynonenal]
T-REX targeted delivery efficiency (Ube2V1): 5±2%
T-REX targeted delivery efficiency (Ube2N): < 2%
NF-κB-pathway activation (NF-κB-signaling (Ube2V2)): did not result in NF-κB-pathway activation
T-REX targeted delivery efficiency (Ube2V2): 15±6% and 15%
DNA-synthesis stall [1]: the extent of DNA-synthesis stall was similar to that observed under mitomycin-C treatment
